Molecules are shown by their SMILES.

Usually melting point stands for the temperature of the solid-liquid transition. Broadly, the boiling point is the temperature at which the vapour pressure of the liquid equals the pressure above it.

Details in one series: not given
The compound `OC[C@H]1O[C@H]1c1ccccc1` returned a melting point of 26.5 °C.
Take `CCCCC(N)=O`: the boiling point worked out at 225 °C and the melting point worked out at 106 °C.
In turn, `Oc1ccc2cccc(Cl)c2c1` came in with a boiling point of 308 °C and a melting point of 101 °C.
In the case of `Oc1ccc(O)cc1`, the boiling point turned out to be 287 °C, the log10 vapour pressure (mmHg) is -4.62, the melting point stood at 172 °C and the ready biodegradability entry is reported as “readily biodegradable”.
`CCNCc1ccccc1` came in with a boiling point of 194 °C.
Consider `CCc1ccc(Cl)cc1`, for which the boiling point is 184 °C and the melting point is -62.6 °C.
In the case of `Oc1cc(Cl)ccc1Cl`, the boiling point turned out to be 211 °C, the log10 vapour pressure (mmHg) is -1.25, the melting point came out at 59 °C and the ready biodegradability result is given as “not readily biodegradable”.
Take `Cc1ncc(CO)c(CO)c1O`: the melting point is 160 °C.
For the compound `[N-]=[N+]=Nc1ccc(Cl)cc1`, the melting point amounted to 20 °C.
As for `Clc1cccc(Cl)c1Oc1ccccc1`, the log10 vapour pressure (mmHg) was -2.89.
In the case of `CCCCCCC(C)CCC` (configuration not stated), the boiling point is 187 °C and the melting point is -77.5 °C.
Compound `CCOC(=O)COc1ccc2c(=O)cc(-c3ccccc3)oc2c1` showed a melting point of 124 °C.
Still for that read-out and setting: as for `O=c1[nH]ncc2ccccc12`, the figure is 188 °C.
`CCN(C)N=O` gave a boiling point of 170 °C.
`O=S(=O)(Cl)c1ccc(F)cc1` registered a melting point of 30 °C.
In turn, `O=[N+]([O-])c1ccc(-c2ccccc2)cc1` gave a boiling point of 340 °C and a melting point of 114 °C.
For `COCC#N`, the boiling point is 119 °C.
Regarding `O=[N+]([O-])c1cccc(Cl)c1Cl`, the boiling point was determined as 258 °C, the melting point was 61.5 °C and the ready biodegradability entry is “not readily biodegradable”.
Take `CC(C)CCOC(=O)c1ccccc1`: the boiling point is 261 °C and the log10 vapour pressure (mmHg) is -0.848.
Consider `O=C1c2ccccc2C(=O)c2cc(Br)ccc21`, for which the melting point was 206 °C.
The same measure, in the same setting: to `C[C@@H]1C[C@H]2[C@@H]3CCC4=CC(=O)C=C[C@]4(C)[C@@]3(F)[C@@H](O)C[C@]2(C)[C@@]1(O)C(=O)CO` belongs 248 °C.
With `CCOP(=S)(OCC)SCCS(=O)(=O)CC`, the log10 Koc (L/kg) is 3.22.
Regarding `COc1ccc2c(c1O)-c1c3c(cc4c1[C@H](C2)N(C)CC4)OCO3`, the melting point worked out at 200 °C.
As for `CC(C)C(C)O` (configuration not stated), the boiling point turned out to be 112 °C and the log10 vapour pressure (mmHg) was determined as 0.961.
As for `Cl.Cl.Cl.Cl.Nc1ccc(-c2ccc(N)c(N)c2)cc1N`, the melting point amounted to 179 °C.
On the same count and under the same terms, as for `N#Cc1cccc(O)c1`, the figure is 80 °C.
Turning to `Clc1c(Cl)c(Cl)c(Cl)c(Cl)c1Cl`, the boiling point was found to be 325 °C, the log10 Henry constant (atm·m³/mol) is -2.77, the log10 Koa was determined as 7.38 and the log10 Koc (L/kg) stood at 3.74. The log10 vapour pressure (mmHg) was -4.74, the melting point came out at 232 °C and the ready biodegradability entry is on record as “not readily biodegradable”.
As for `C=CC1CNC(=S)O1` (configuration not stated), the melting point was determined as 50 °C.
`N#CCC#N` showed a boiling point of 218 °C, a log10 vapour pressure (mmHg) of -0.698 and a melting point of 32 °C.
`C=CC(=O)NC(C)(C)C` showed a melting point of 128 °C.
For `CNC(=O)CSP(=S)(OC)OC`, the log10 Koc (L/kg) came out at 1.2, the log10 vapour pressure (mmHg) was -4.73, the melting point was 52 °C and the ready biodegradability result was “not readily biodegradable”.
For the compound `NS(=O)(=O)c1cc2c(cc1Cl)NC(C1CC3C=CC1C3)NS2(=O)=O` (configuration not stated), the melting point is 234 °C.
Regarding `O=C1CCCO1`, the boiling point was 204 °C, the log10 vapour pressure (mmHg) was -0.347, the melting point was -43.3 °C and the ready biodegradability entry is given as “readily biodegradable”.
With `O=c1n(CCO)c(=O)n(CCO)c(=O)n1CCO`, the ready biodegradability result is on record as “not readily biodegradable”.
As to `C=C1CC2CC1CC2(C)C` (configuration not stated), the boiling point worked out at 152 °C.
Regarding `O=c1oc2ccccc2cc1O`, the melting point is 154 °C.
The same measure, in the same setting: as for `CC(=O)CC(=O)C(=O)O`, the figure is 99.5 °C.
In turn, `CCCCC[C@@H](O)CC` returned a boiling point of 171 °C, a log10 vapour pressure (mmHg) of -0.592 and a melting point of -45 °C.
Compound `OCCSSCCO` displayed a melting point of 26 °C.
Same read-out and setting: to `O=C(C(=O)c1cc(Br)ccc1O)c1cc(Br)ccc1O` belongs 212 °C.
For the compound `CCCCCCCCCCCCCCCCCC(=O)OCC`, the log10 vapour pressure (mmHg) was -5.59 and the melting point is 33 °C.
As to `CCOC(=O)CCl`, the boiling point was 144 °C, the log10 vapour pressure (mmHg) came to 0.687 and the melting point was -21 °C.
Regarding `COc1ccc(C(=O)c2csc(S(N)(=O)=O)c2)cc1`, the melting point turned out to be 174 °C.
As for `COc1cc(OC)cc(C(=O)O)c1`, the log10 vapour pressure (mmHg) is -6.86 and the melting point is 186 °C.
As to `Nc1ncc(C=O)s1`, the ready biodegradability entry was “readily biodegradable”.
As to `O=C(O)c1cc(F)ccc1F`, the melting point came to 133 °C.
The same measure, in the same setting: to `COc1ccc(C(=O)O)cc1O` belongs 252 °C.
As for `COC(=O)c1c(Cl)c(Cl)c(C(=O)OC)c(Cl)c1Cl`, the boiling point is 365 °C, the log10 Koc (L/kg) was 3.7, the log10 vapour pressure (mmHg) was -5.6 and the melting point was found to be 155 °C. In addition, the ready biodegradability entry is “not readily biodegradable”.
Regarding `c1ccc2cc3ccccc3cc2c1`, the boiling point is 340 °C, the log10 Henry constant (atm·m³/mol) was -4.25, the log10 Koa came to 7.55 and the log10 Koc (L/kg) amounted to 4.31. Besides, the log10 biodegradation half-life (days) is 2.09, the log10 vapour pressure (mmHg) is -5.19, the melting point was 215 °C and the ready biodegradability result was “not readily biodegradable”.
Regarding `NS(=O)(=O)c1ccc(SCCCCO)s1`, the melting point was 48.5 °C.
With `CC=CC(OCC)OCC`, the boiling point turned out to be 148 °C.
Still for that read-out and setting: as for `CN1C(=O)c2ccc([N+](=O)[O-])cc2C1=O`, the figure is 361 °C.
On to `Cc1ccc(N)c(N)c1`, for which the boiling point was 265 °C, the log10 vapour pressure (mmHg) was -3.2 and the melting point was 89.5 °C.
Turning to `CCCCCCCCCCCCCCCCCC(=O)OCCOC(=O)CCCCCCCCCCCCCCCCC`, the melting point came out at 79 °C and the ready biodegradability result is on record as “readily biodegradable”.
Consider `O=C(O)C=Cc1ccccc1`, for which the ready biodegradability entry was “readily biodegradable”.
`O=[N+]([O-])O[C@H]1CO[C@H]2[C@@H]1OC[C@H]2O[N+](=O)[O-]` came in with a melting point of 70 °C.
In the case of `C=CC(C)O` (configuration not stated), the ready biodegradability entry is “readily biodegradable”.
The same measure, in the same setting: as for `O=C(Nc1ccc(Cl)c(Cl)c1)Nc1cc(Cl)ccc1Oc1ccc(Cl)cc1S(=O)(=O)O`, the entry is “not readily biodegradable”.
`CC1=CCC2C(C1)C2(C)C` (configuration not stated) yielded a boiling point of 170 °C.
As to `CCCC(C)(COC(N)=O)COC(=O)NC(C)C` (configuration not stated), the melting point worked out at 92 °C.
For `FC(F)(F)C(Cl)(Cl)C(Cl)(Cl)C(F)(F)F`, the boiling point is 131 °C and the melting point turned out to be 83.5 °C.
`O=C(O)c1cccc(C(=O)O)n1`: the ready biodegradability entry is “readily biodegradable”.
Compound `C#CCCCO` gave a boiling point of 154 °C.
Compound `CC(C)[N+](=O)[O-]` came in with a boiling point of 120 °C, a log10 vapour pressure (mmHg) of 1.24 and a melting point of -91.3 °C.
With `ClCc1ccc(Cl)c(Cl)c1`, the boiling point was found to be 241 °C, the melting point is 37.5 °C and the ready biodegradability entry is “not readily biodegradable”.
Consider `CCCCCCCC/C=C\CCCCCCCCOC(=O)CCCCC(=O)OCCCCCCCC/C=C\CCCCCCCC`, for which the ready biodegradability entry was “readily biodegradable”.
Take `CC(C)OC(=O)CCCCC(=O)OC(C)C`: the melting point was -1.1 °C.
On the same count and under the same terms, to `CCOC(=O)C(C(=O)OCC)c1ccccc1` belongs 16.5 °C.
Take `CCC(CC)C(C)C`: the boiling point turned out to be 116 °C, the log10 biodegradation half-life (days) amounted to 0.778, the log10 vapour pressure (mmHg) stood at 1.38 and the melting point was -115 °C.
In turn, `CCCCB(CCCC)CCCC` showed a boiling point of 209 °C.
For `CC1=CC(=O)c2c(O)cccc2C1=O`, the melting point was 78.5 °C.
The compound `CNc1cnn(-c2cccc(C(F)(F)F)c2)c(=O)c1Cl` displayed a log10 Koc (L/kg) of 3.28, a log10 vapour pressure (mmHg) of -7.54 and a melting point of 184 °C.

The same series, now with this note: fish.
In the case of `Oc1cc(Cl)ccc1Cl`, the log10 BCF is 1.01.
On to `O=[N+]([O-])c1cccc(Cl)c1Cl`, for which the log10 BCF is 2.16 and the log10 biotransformation half-life (days) was 0.54.
The corresponding values for `CCOP(=S)(OCC)SCCS(=O)(=O)CC` are 0.7 and -0.67.
`Clc1c(Cl)c(Cl)c(Cl)c(Cl)c1Cl` showed a log10 BCF of 4.33 and a log10 biotransformation half-life (days) of 2.44.
`CNC(=O)CSP(=S)(OC)OC` showed a log10 BCF of 0.2 and a log10 biotransformation half-life (days) of -1.01.
Regarding `O=c1n(CCO)c(=O)n(CCO)c(=O)n1CCO`, the log10 BCF amounted to 0.2.
`c1ccc2cc3ccccc3cc2c1`: the log10 BCF was determined as 3.26 and the log10 biotransformation half-life (days) was 0.65.
Consider `O=C(Nc1ccc(Cl)c(Cl)c1)Nc1cc(Cl)ccc1Oc1ccc(Cl)cc1S(=O)(=O)O`, for which the log10 BCF came to 1.87.
Turning to `CC(C)(c1ccccc1)C(C)(C)c1ccccc1`, the log10 biotransformation half-life (days) is 0.87.
Regarding `CC(C)[N+](=O)[O-]`, the log10 BCF was 0.92 and the log10 biotransformation half-life (days) is -1.2.

For the origin of these results see the OPERA property sets (Mansouri et al. 2018).
